Here are results for two compounds from patent publication US20200121579A1, “TOPICAL COMPOSITIONS” (DSM IP ASSETS B.V., priority 2017, published 2020).

Each structure is given as a SMILES string.

The subject of one test is Escherichia coli. The test can be described thus: Antimicrobial efficacy in analogy to challenge test NF EN ISO11930, E. coli. In kind it is cell-based. Conditions: 0.1 wt.-% single active; for Escherichia coli colony count: 24 h after contamination, 22° C., initial count 250000 cfu/ml. An excerpt:
The wells are contaminated with either Propionibacterium acnes or Escherichia coli at 2.5*10^5 to 5.6*10^5 cfu/ml to obtain the initial contamination as outlined in table 1.

The next test concerns Propionibacterium acnes. As to the kind of experiment: Antimicrobial efficacy in analogy to challenge test NF EN ISO11930, P. acnes. The format is cell-based. The conditions noted are these: 0.1 wt.-% single active; for Propionibacterium acnes colony count: 24 h after contamination, 22° C., initial count 310000 cfu/ml. From the text: The wells are contaminated with either Propionibacterium acnes or Escherichia coli at 2.5*10^5 to 5.6*10^5 cfu/ml to obtain the initial contamination as outlined in table 1. […] (The term “Log reduction” is a well-known mathematical term used to show the relative number of cells, germs, microbes, etc., reduced in or on something, e.g. a 2 log reduction means the number of microbes is 100 times smaller and a 3 log reduction means the number of microbes is 1000 times smaller).

Consider `CC(=O)OC/C=C(C)/C=C/C=C(C)/C=C/C1=C(C)CCCC1(C)C` [retinyl acetate], for which, in the test on Escherichia coli, the “Δ (change of microorganism count t = 24 h vs t = 0)” value was “+112%” and the “Escherichia coli colony count” value came to 530000 cfu/ml. Further, the “Propionibacterium acnes colony count” value with Propionibacterium acnes is 3000 cfu/ml. Besides, the Log reduction in the test on Propionibacterium acnes (24 h vs 0 h) was found to be 2.
With `O=C(CO)[C@H](O)CO` (racemic) [erythrulose], in the test on Escherichia coli, the “Δ (change of microorganism count t = 24 h vs t = 0)” value is “+112%” and the “Escherichia coli colony count” value was 530000 cfu/ml. The “Propionibacterium acnes colony count” value in the test on Propionibacterium acnes is 3000 cfu/ml.
